Reference: US7414042B2, “Method and composition for selectively inhibiting melanoma” (The Board of Trustees of The University of Illinois, priority 1995, dated 2008)
≈ marks a conversion by molar mass, not a printed value. Entries after “also recorded” stand apart in the source; their conditions may differ.

Experiments:
MEL-2 cells = experiment: Formation of the 50 Kbp DNA fragment (apoptosis), field-inversion gel electrophoresis; type: cell-based, human
Excerpt: Therefore, an important feature of the present invention is a method of analyzing and quantifying the formation of the 50 Kbp fragment as a biomarker for induction of apoptosis in human cancer cell lines. This method comprises treatment of cells in culture, followed by analysis of the total cellular DNA content using agarose field-inversion gel electrophoresis. Under these conditions, the 50 Kbp fragment is resolved as a diffuse band. The fraction of the total cellular DNA represented by the 50 Kbp fragment is determined by densitometry on the contour of this band.
To investigate the ability of betulinic acid to induce apoptosis, the above-described method was adapted for use with the MEL-2 cell line. […]
With further respect to FIG. 3A, cultured MEL-2 cells (10^6 cells inoculated per 25 cm^2 flask) were treated with […] betulinic acid (200 μg/ml DMSO, diluted 1:100 in media) for 24, 32, 48, 56 and 72 hours. […] Samples were analyzed on a 1% agarose gel in a Hoefer HE100 SuperSub apparatus cooled to 10° C. by a circulating water bath. […]
Electrophoresis was performed at 172 volts for a total of 18 hours using two sequential field inversion programs with pulse ramping. The DNA/ethidium bromide fluorescence was excited on a UV transilluminator and photographed using Polaroid type 55 P/N film. The negative was analyzed using a PDI scanning densitometer and Quantity One software. […]

[1] = test system: L1210 murine lymphocytic leukemia; details: 200 mg/kg; cited from earlier work
P-388 murine lymphocyte = details: tests conducted by the National Cancer Institute; cited from earlier work
MEL-1 = experiment: Dose-response study, additional human melanoma cell line; type: cell-based
Protocol: Moreover, the cytotoxic response mediated by betulinic acid is not exclusively limited to the MEL-2 melanoma cell line.
(§1) The plates were incubated for three days. […] Dose response studies were performed to generate ED50 values.

human lymphocytes = experiment: Formation of the 50 Kbp DNA fragment in normal cells; type: cell-based; details: 2 and 20 μg/ml, time-course
Solubility in water = type: physicochemical; details: listed as betulinic acid
MEL-2 (melanoma) = experiment: Cytotoxicity against cultured human melanoma cells (SRB); type: cell-based
Protocol: as §1

MEL-8 melanoma cell line = experiment: Cytotoxicity of betulinic acid derivatives; type: cell-based, human; details: Tables 2-6
Protocol: as §1

MEL-6 melanoma cell line = experiment: Cytotoxicity of betulinic acid derivatives; type: cell-based, human; details: Tables 2-6
Protocol: as §1

[2] = test system: MALE-3M melanoma cell line; experiment: Cytotoxicity of betulinic acid derivatives; type: cell-based, human; details: Tables 2-6
Protocol: as §1

LOX melanoma cell line = experiment: Cytotoxicity of betulinic acid derivatives; type: cell-based, human; details: Tables 2-6
Protocol: as §1

LU-1 (lung) = experiment: Cytotoxicity against cultured human cancer cells (SRB); type: cell-based; details: Homo sapiens, 72 h, three days incubation, read-out: ED50 LU-1
Protocol: as §1

A431 (squamous cells) = experiment: as above; type: cell-based; details: Homo sapiens, A-431, 72 h; three days incubation, SRB; read-out: ED50 A431
Protocol: as §1

BC-1 (breast) = experiment: as above; type: cell-based; details: Homo sapiens, 72 h; three days incubation, SRB; read-out: ED50 BC-1
Protocol: as §1

LNCaP (prostate) = experiment: as above; type: cell-based; details: Homo sapiens, LNCaP, 72 h; three days incubation, SRB; read-out: ED50 LNCaP
Protocol: as §1

COL-2 (colon) = experiment: as above; type: cell-based; details: Homo sapiens, Col2, 72 h; three days incubation, SRB; read-out: ED50 COL-2
Protocol: as §1

[3] = test system: KB (human oral epidermoid carcinoma); experiment: as above; type: cell-based
Protocol: as §1

U373 (glioma) = experiment: as above; type: cell-based; details: Homo sapiens, U373 MG, 72 h; three days incubation, SRB; read-out: ED50 U373
Protocol: as §1

ZR-75-1 (breast) = experiment: as above; type: cell-based; details: Homo sapiens, ZR-75-1, 72 h; three days incubation, SRB; read-out: ED50 ZR 75-1
Protocol: as §1

HT-1080 (sarcoma) = experiment: as above; type: cell-based; details: Homo sapiens, HT-1080, 72 h, three days incubation, read-out: ED50 HT-1080
Protocol: as §1

[4] = test system: human melanoma and nonmelanoma cancer cell lines; experiment: Cytotoxicity profile across the panel of human cancer cell lines; details: all Table 1 cell lines other than MEL-2
Protocol: In the following Table 1, the extracted betulinic acid and the other pure compounds were tested for cycotoxity against the following cultured human cell lines: A431 (squamous cells), BC-1 (breast), COL-2 (colon), HT-1080 (sarcoma), KB (human oral epidermoid carcinoma), LNCaP (prostate), LU-1 (lung), MEL-2 (melanoma), U373 (glioma) and ZR-75-1 (breast).
Cytotoxicity of the crude extracts and purified compounds was determined in a number of cultured human cancer cell lines. The cells were cultured in appropriate media and under standard conditions. To maintain logarithmic growth, the media were changed 24 hours prior to cytotoxic assays. On the day of the assay, the cells were harvested by trypsinization, counted, diluted in media, and added to 96-well plates containing test compounds dissolved in DMSO; the final DMSO concentration was 0.05%.
The plates were incubated for three days. Following the incubation period, the cells were fixed and stained with sulforhodamine B (SRB) dye. The bound dye was liberated with Tris base, and the OD515 was measured on an ELISA reader. The growth of the betulinic acid-treated cells was determined by the OD515 values, and the growth was compared to the OD515 values of DMSO-treated control cells. Dose response studies were performed to generate ED50 values.
The biological evaluation of the derivatives focused on the activity against human melanoma cell lines. In particular, the following betulinic acid derivatives were prepared and tested for cytotoxicity profile against human melanoma cell lines and against a number of selected nonmelanoma cell lines.

[5] = 200 and 400 mg/kg doses; cited from earlier work
[6] = test system: Walker 256 murine carcinosarcoma; details: cited from earlier work

For C=C(C)[C@@H]1CC[C@]2(C(=O)O)CC[C@]3(C)[C@H](CC[C@@H]4[C@@]5(C)CC[C@H](O)C(C)(C)[C@@H]5CC[C@]43C)[C@@H]12 [Compound 10, 3β-hydroxy-lup-20(29)-ene-28-oic acid], the “treatment period at maximum induction of the 50 Kbp fragment” value (MEL-2 cells; 2 μg/ml betulinic acid (FIG. 3A)) is listed as 56 h, the “ED50 of the apoptotic response (50 Kbp fragment)” value (MEL-2 cells; MEL-2 cells treated for 56 hours (FIG. 3B)) is listed as “about 1.5 μg/ml” and the “antitumor activity, L1210” value [1] is listed as “inactive”. For the same compound, the “antitumor activity, P-388” value (P-388 murine lymphocyte) was “activity was not supported”, the “ED50 MEL-1” value (MEL-1) was 1.1 µg/mL (≈ 2.41 µM) and the “formation of the 50 Kbp fragment in human lymphocytes” value (human lymphocytes) was “did not demonstrate formation of the 50 Kbp fragment”. The solubility in water (Solubility in water) was “poor solubility in water; also recorded: low water solubility”, the IC50 (MEL-2 (melanoma); Homo sapiens, MEL2, 72 h, three days incubation, SRB, Table 1 and text, read-out: ED50 MEL-2) was about 2 µg/mL (≈ 4.38 µM) and the “ED50 (Std. Dev.) MEL-2” value (MEL-2 (melanoma); derivatives, Tables 2-6) was 1.2 (0.1) μg/mL. The “ED50 MEL-2” value (MEL-2 (melanoma); three days incubation, SRB, Table 1 and text, listed as Betulinic acid) was 2.0 µg/mL (≈ 4.38 µM), the “ED50 (Std. Dev.) MEL-8” value (MEL-8 melanoma cell line) was 1.0 (0.3) μg/mL and the “ED50 (Std. Dev.) MEL-6” value (MEL-6 melanoma cell line) was 13.2 (1.5) μg/mL. The “ED50 (Std. Dev.) MALE-3M” value [2] was 17.6 (0.5) μg/mL, the “ED50 (Std. Dev.) LOX” value (LOX melanoma cell line) was over 20 µg/mL and the IC50 (LU-1 (lung)) was over 20 µg/mL. For the same compound, the IC50 (A431 (squamous cells)) was over 20 µg/mL, the IC50 (BC-1 (breast)) was over 20 µg/mL and the IC50 (LNCaP (prostate)) was over 20 µg/mL. The IC50 (COL-2 (colon)) was over 20 µg/mL, the IC50 ([3]; Homo sapiens, 72 h, three days incubation, SRB, Table 1, read-out: ED50 KB) was over 20 µg/mL and the “ED50 (Std. Dev.) KB” value ([3]; derivatives, Tables 2-6) was over 20 µg/mL. For the same compound, the IC50 (U373 (glioma)) was over 20 µg/mL, the IC50 (ZR-75-1 (breast)) was over 20 µg/mL and the IC50 (HT-1080 (sarcoma)) was over 20 µg/mL. The “ED50, other cancer cell lines tested” value [4] was “greater than 20 μg/ml”, the “activity in Hippocratic screen” value [5] was “inactive” and the “antitumor activity, Walker 256, subsequent report” value ([6]; 400 mg/kg) was “inactive”. For the same compound, the “antitumor activity, Walker 256” value ([6]; 300 and 500 mg/kg body weight) was “dose-dependent activity”.
